# Article PMC7663799, “Endocytosis and Trafficking of Heparan Sulfate Proteoglycans in Triple-Negative Breast Cancer Cells Unraveled with a Polycationic Peptide” (International Journal of Molecular Sciences, 2020)
# What was measured:
# [1] = tested on: NT4 internalization in MDA-MB-231 cells; experiment: Inhibition of NT4 internalization by pharmacological agents, confocal microscopy; assay type: cell-based, human; details: for reduction of NT4 internalization: ±13%
# Method: (§1) MDA-MB-231 cells were plated at a density of 5 × 10^4 per well in 24-well plates with glass cover slides and maintained overnight at 37 °C, 5% CO2.
# Cells were pretreated for 15 min with 1–10 μg/mL Chlorpromazine (Merck, Darmstadt, Germany), 25 μg/mL Nystatin (Merck), 80 μM Dynasore (Merck) and 50 µM Amiloride (Merck) at 37 °C and then incubated with 2 μM NT4-biotin and 0.5 μg/mL Streptavidin-Atto 488 in PBS-1% BSA at room temperature for 15 min. To study macropinocytosis in the presence of Amiloride, 5 mg/mL Rhodamine B isothiocyanate–Dextran in PBS-1% BSA (Merck) was incubated at room temperature for 15 min. Cells were then washed and grown in medium, with and without pharmacological agents, for 15 and 30 min at 37 °C to allow peptide internalization. After internalization, they were fixed with PBS-4% PFA and plasma membranes were stained with 2.5 μg/mL wheat germ agglutinin, Alexa Fluor 647 (Thermo Fisher Scientific) conjugate in PBS-1% BSA, incubated for 10 min at room temperature. Nuclei were stained with DAPI (0.5 μg/mL in PBS-1% BSA). Each step was followed by three washes in PBS.
# Peptide binding was analyzed by confocal laser microscope (Leica TCS SP5) with 501 λ ex and 523 λ em for Atto 488, 633 λ ex and 660–680 λ em for Atto 647 and 364 λ ex and 458 λ em for DAPI. Images were single Z-planes for all channels used. All images were processed and quantified using the Leica Application Suite X program (LAS X) of the confocal laser microscope (Leica TCS SP5). The experiment was repeated at least three times and at least three different fields were acquired for each sample.
# Rac-1-GTP = experiment: Rac1 pulldown assay (GST-PAK1-PBD beads, immunoblot); assay type: cell-based, human; details: MDA-MB-231, no EGF
# Method: Rac1 activity was measured by pulldown assay using the active Rac1 detection kit (Cell Signaling), according to the manufacturer’s instructions. Cells were seeded in six-well plates (5 × 10^5 cells per well) and maintained for 24 h in a CO2 incubator. Cells were washed with cold PBS and lysed. Protein lysates were centrifuged and the supernatant was collected in new tubes containing beads pre-coupled with GST–PAK1-PBD and incubated under rotation at 4 °C for 60 min. The beads were washed and the proteins bound to them were separated by SDS-PAGE. The amounts of active Rac1 were determined by immunoblot analysis. Signals were detected using a LAS4010 imaging system (GE Healthcare, Chicago, IL, USA).
# MDA-MB-231 cells [2] = experiment: 2D migration, in vitro wound-healing (scratch) assay; assay type: cell-based, human; details: 10 μM NT4 in complete medium, p = 0.0428, n = 2
# Method: Cell migration was measured using an in vitro wound-healing assay. MDA-MB231 cells (5.25 × 10^4) were seeded on each side of a culture insert for live cell analysis (Ibidi, Munich, Germany). Inserts were placed in the wells of a 24-well plate and the cells were incubated at 37 °C and 5% CO2 to confluence. The inserts were removed with sterile tweezers to create a cell-free area of approximately 500 μm. The cells were treated with 10 μM NT4 peptide in complete medium and allowed to migrate in an appropriate incubator of a DMi8 (Leica Microsystems, Wetzlar, Germany) microscope. The same instrument was used to take pictures at time zero and every 5 min for 11 h.
# The percentage of void area with respect to time 0 was determined using Tscratch. The time-lapse image stacks were also analyzed using ImageJ and the plug-in Chemotaxis and Migration Tool.
# MDA-MB231 cells = details: flow cytometry; cited from earlier work
# Method: The peptide bound to the plasma membrane (Figure 1A), most was internalized in cells within 15–30 min (Figure 1B,C) and it was completely endocytosed within 1 h (Figure 1D). The antibody anti-HS clone 10E4 [20], the epitope of which includes an N-sulfated glucosamine r ...
# CDC42-GTP = experiment: G-LISA activation assay, CDC42; assay type: cell-based, human; details: starved MDA-MB-231
# Method: Cells were seeded in six-well plates (5 × 10^5 cells per well) and maintained for 12 h in a CO2 incubator. To measure Rac-1, RhoA and CDC42 GTPases, they were treated with 10 µM NT4 in DMEM-0.1% BSA, serum-free, for 12 h at 37 °C and then incubated with 0.1 μg/mL hEGF (Cell Signaling) for 2 min for Rac-1 and CDC42 GTPases and for 5 min for RhoA GTPase. Cells were washed with cold PBS, lysed and processed for colorimetric G-LISA activation assays (Cytoskeleton, Denver, CO, USA), according to the manufacturer’s instructions. The activated forms of the G proteins were detected by incubation with specific primary antibody, followed by a secondary antibody conjugated with HRP and a detection reagent. The signal was read by measuring absorbance at 490 nm using a microplate reader. […]
# heparan sulfate chains = details: surface plasmon resonance; cited from earlier work
# RhoA-GTP = experiment: G-LISA activation assay, RhoA; assay type: cell-based, human; details: starved MDA-MB-231, n = 3
# Method: (§2) Cells were seeded in six-well plates (5 × 10^5 cells per well) and maintained for 12 h in a CO2 incubator. To measure Rac-1, RhoA and CDC42 GTPases, they were treated with 10 µM NT4 in DMEM-0.1% BSA, serum-free, for 12 h at 37 °C and then incubated with 0.1 μg/mL hEGF (Cell Signaling) for 2 min for Rac-1 and CDC42 GTPases and for 5 min for RhoA GTPase. Cells were washed with cold PBS, lysed and processed for colorimetric G-LISA activation assays (Cytoskeleton, Denver, CO, USA), according to the manufacturer’s instructions. The activated forms of the G proteins were detected by incubation with specific primary antibody, followed by a secondary antibody conjugated with HRP and a detection reagent. The signal was read by measuring absorbance at 490 nm using a microplate reader. The experiment was repeated three times.
# Rac1-GTP = experiment: G-LISA activation assay, Rac1; assay type: cell-based, human; details: starved MDA-MB-231
# Method: as §2
# MDA-MB-231 cells [3] = experiment: NT4 binding to plasma membrane and internalization, confocal immunofluorescence; assay type: cell-based, human; details: confocal microscopy
# Method: as §1
# Cells were incubated with 2 μM NT4-biotin and 0.5 μg/mL Streptavidin-Atto 488 in PBS-1% BSA at room temperature for 15 min, then washed and grown in medium for 5, 15 and 30 min at 37 °C to allow peptide internalization. They were then fixed with PBS-4% paraformaldehyde (PFA) and saturated with PBS-5% BSA 0.3%-Triton X-100. HS was stained using 1 µg/mL anti-heparan sulfate (10E4 epitope) (Amsbio, Abingdon, UK) in PBS-1% BSA for 1 h, followed by incubation with 1 μg/mL anti-mouse IgG Rhodamine Red-X (Thermo Fisher Scientific, Waltham, MA, USA). Nuclei were stained with DAPI (0.5 μg/mL in PBS-1% BSA). Each step was followed by three washes in PBS. Peptide binding was analyzed by confocal laser microscope (Leica TCS SP5) with 380 λ ex and 450–470 λ em, 501 λ ex and 523 λ em and 633 λ ex and 660–680 λ em for DAPI, Atto 488 and Atto 647, respectively. The experiment was repeated three times and three different fields were acquired for each sample.
# proteolytic enzymes = details: imparted by branched structure; cited from earlier work
# Excerpt: NT4 is a tetrabranched peptide obtained by synthesizing four copies of the 13-amino-acid sequence on a branched core of lysines. […] The peptide has already been tested in animal models of cancer and has shown good specificity for tumor versus healthy cells. It also countered the invasive ...
compound,measurement,setting,value
N=C(N)NC(=O)c1nc(Cl)c(N)nc1N [Amiloride],impairment of NT4 internalization,"[1]; 50 µM amiloride pre-treatment, p = 0.0461",more than 50%
CN(C)CCCN1c2ccccc2Sc2ccc(Cl)cc21 [chlorpromazine],reduction of NT4 internalization,"[1]; chlorpromazine 1 μg/mL, n = 3, p = 0.0279",27%
same,reduction of NT4 internalization,"[1]; chlorpromazine 10 μg/mL, n = 4, p = 0.0327",57%
O=C(N/N=C/c1ccc(O)c(O)c1)c1cc2ccccc2cc1O [dynasore],effect on NT4 internalization,"[1]; 80 μM dynasore, n = 6, p = 0.0043",no longer internalized NT4
C[C@@H]1[C@H](O)[C@@H](C)/C=C/C=C/CC/C=C/C=C/C=C/C=C/C(O[C@H]2O[C@H](C)[C@@H](O)[C@H](N)[C@@H]2O)CC2O[C@](O)(CC(O)C(O)CCC(O)CC(O)CC(O)CC(=O)O[C@H]1C)CC(O)C2C(=O)O (some centres unmarked) [nystatin],inhibition of NT4 endocytosis,"[1]; 25 μg/mL nystatin, 15 min, 2 μM NT4-biotin, n = 9, p = 0.0345",60%
(pyELYENKPRRPYIL)4K2K-beta-Ala [NT4],effect on basal levels of Rac-1-GTP,Rac-1-GTP,not affected
same,effect on MDA-MB-231 migration (gap closure in 8 h),MDA-MB-231 cells [2],slowed MDA-MB-231 migration
same,binding to MDA-MB231 cells,MDA-MB231 cells,bind to MDA-MB231 cells
same,effect on CDC42 activation without EGF,"CDC42-GTP; 10 µM NT4 12 h, no EGF",no effect on CDC42 activation
same,effect on EGF-induced CDC42 activation,"CDC42-GTP; 10 µM NT4 12 h, then 0.1 μg/mL hEGF 2 min, n = 2",mitigates activation of CDC42 induced by the growth factor
same,binding to heparan sulfate chains,heparan sulfate chains,bind heparan sulfate chains
same,reduction of RhoA (RhoA-GTP),"RhoA-GTP; 10 µM NT4 12 h alone, without EGF",20%
same,reduction of RhoA (RhoA-GTP),"RhoA-GTP; EGF with NT4: 10 µM NT4 12 h, then 0.1 μg/mL hEGF 5 min",21%
same,effect on EGF-induced Rac1 activation,"Rac1-GTP; 10 µM NT4 12 h, then 0.1 μg/mL hEGF 2 min",not significantly changed
same,time within which most of the peptide was internalized in cells,"MDA-MB-231 cells [3]; 2 μM NT4-biotin + 0.5 μg/mL Streptavidin-Atto 488, 15 min RT in PBS-1% BSA, then medium at 37 °C",15 to 30 min
same,time within which the peptide was completely endocytosed,"MDA-MB-231 cells [3]; 2 μM NT4-biotin + Streptavidin-Atto 488, 37 °C",≤ 1 h
same,stability against proteolytic enzymes,proteolytic enzymes,stability against proteolytic enzymes
"EGF: growth factor (hEGF, Cell Signaling) used to stimulate Rho GTPases",effect on CDC42-GTP,CDC42-GTP; 0.1 μg/mL hEGF 2 min,increased
same,reduction of RhoA (RhoA-GTP),RhoA-GTP; 0.1 μg/mL hEGF 5 min alone,26%
same,effect on Rac1-GTP,Rac1-GTP; 0.1 μg/mL hEGF 2 min,transiently activated
